In assay [1] the target is Insulin-like growth factor 1 receptor (Homo sapiens, UniProt P08069). Conditions: at 10 µM.
Assay [2] deals with Calcium/calmodulin-dependent protein kinase kinase 2 (Homo sapiens) (UniProt Q96RR4). Briefly: Selectivity interaction (Kinase panel (DSF assay)) EUB0001558a CAMKK2.
In assay [3] the test system is Receptor-type tyrosine-protein kinase FLT3 (Homo sapiens), P36888 [UNDEFINED MUTATION]. Briefly: Selectivity interaction (KinomeScan (DiscoverX)) EUB0000311b FLT3. The following applies: at 1 µM.
In assay [4] the target is D(3) dopamine receptor (Homo sapiens, UniProt P35462). Briefly: Selectivity interaction (GPCR panel (PDSP screen)) EUB0001079a DRD3. Conditions: at 10 µM.
The target of assay [5] is cGMP-inhibited 3',5'-cyclic phosphodiesterase 3A (Homo sapiens, UniProt Q14432). Briefly: Selectivity interaction (Eurofins safety panel) EUB0001564a PDE3A. Conditions: at 10 µM.
In assay [6] the target is T1, Dual specificity mitogen-activated protein kinase kinase 5 (Homo sapiens) (UniProt Q13163).
T1 sequence (whole entry): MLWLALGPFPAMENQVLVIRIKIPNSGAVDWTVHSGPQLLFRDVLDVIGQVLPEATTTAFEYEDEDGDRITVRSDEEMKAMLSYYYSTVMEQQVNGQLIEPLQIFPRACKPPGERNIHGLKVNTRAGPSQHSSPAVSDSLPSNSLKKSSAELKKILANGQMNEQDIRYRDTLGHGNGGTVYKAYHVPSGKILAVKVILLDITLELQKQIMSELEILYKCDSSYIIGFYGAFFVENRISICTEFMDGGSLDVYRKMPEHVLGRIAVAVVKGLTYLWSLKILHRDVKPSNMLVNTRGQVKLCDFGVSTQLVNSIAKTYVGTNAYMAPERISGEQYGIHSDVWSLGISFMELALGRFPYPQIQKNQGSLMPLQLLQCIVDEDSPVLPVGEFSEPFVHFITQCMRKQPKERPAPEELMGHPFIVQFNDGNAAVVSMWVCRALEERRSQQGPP
Put plainly: Selectivity interaction (ActivX KiNativ screen (kinase selectivity in THP-1 cell lysates)) EUB0000639a MAP2K5. In kind it is subcellular. Conditions: lysate.

Assay [7] deals with T2, Tyrosine-protein kinase receptor TYRO3 (Homo sapiens) (UniProt Q06418).
T2 sequence (whole entry): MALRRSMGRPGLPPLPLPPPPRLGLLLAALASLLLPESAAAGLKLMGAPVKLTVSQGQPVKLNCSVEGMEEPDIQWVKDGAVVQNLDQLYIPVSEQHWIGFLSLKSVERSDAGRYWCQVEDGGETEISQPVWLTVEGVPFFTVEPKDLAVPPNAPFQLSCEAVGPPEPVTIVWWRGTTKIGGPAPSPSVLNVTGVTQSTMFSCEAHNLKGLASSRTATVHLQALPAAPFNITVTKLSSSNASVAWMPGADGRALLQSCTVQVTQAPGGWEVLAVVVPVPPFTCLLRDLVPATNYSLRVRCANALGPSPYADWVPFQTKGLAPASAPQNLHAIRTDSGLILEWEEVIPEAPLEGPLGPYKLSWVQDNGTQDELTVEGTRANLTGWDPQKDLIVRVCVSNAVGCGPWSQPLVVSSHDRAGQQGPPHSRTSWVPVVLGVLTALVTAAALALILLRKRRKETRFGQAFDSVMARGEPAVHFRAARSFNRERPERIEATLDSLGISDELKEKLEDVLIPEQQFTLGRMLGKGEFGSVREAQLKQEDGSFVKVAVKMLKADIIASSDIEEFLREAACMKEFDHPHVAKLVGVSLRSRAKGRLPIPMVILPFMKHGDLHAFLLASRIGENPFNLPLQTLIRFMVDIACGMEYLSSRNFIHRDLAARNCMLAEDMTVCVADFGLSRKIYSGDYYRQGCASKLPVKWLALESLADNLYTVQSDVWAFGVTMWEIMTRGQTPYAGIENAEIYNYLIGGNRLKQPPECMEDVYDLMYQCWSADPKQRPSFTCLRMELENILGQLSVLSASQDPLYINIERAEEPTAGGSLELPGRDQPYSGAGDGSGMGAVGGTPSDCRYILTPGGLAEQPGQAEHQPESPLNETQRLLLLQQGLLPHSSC
Conditions: at 10 µM.

In assay [8] the target is Serine/threonine-protein kinase PAK 2 (Homo sapiens) (UniProt Q13177). Briefly: Selectivity interaction (KinomeScan (DiscoverX)) EUB0001049a PAK2. The following applies: at 1 µM.
The target in assay [9] is Ribosomal protein S6 kinase beta-1 (Homo sapiens, UniProt P23443). Put plainly: Selectivity interaction (ProQinase) EUB0000171b RPS6KB1.
In assay [10] the target is Casein kinase I isoform delta (Homo sapiens, UniProt P48730). Briefly: Selectivity interaction (KinomeScan (DiscoverX)) EUB0000092b CSNK1D. The following applies: at 10 µM.
Assay [11] deals with T3, Serine/threonine-protein kinase NLK (Homo sapiens) (UniProt Q9UBE8).
T3 sequence (whole entry): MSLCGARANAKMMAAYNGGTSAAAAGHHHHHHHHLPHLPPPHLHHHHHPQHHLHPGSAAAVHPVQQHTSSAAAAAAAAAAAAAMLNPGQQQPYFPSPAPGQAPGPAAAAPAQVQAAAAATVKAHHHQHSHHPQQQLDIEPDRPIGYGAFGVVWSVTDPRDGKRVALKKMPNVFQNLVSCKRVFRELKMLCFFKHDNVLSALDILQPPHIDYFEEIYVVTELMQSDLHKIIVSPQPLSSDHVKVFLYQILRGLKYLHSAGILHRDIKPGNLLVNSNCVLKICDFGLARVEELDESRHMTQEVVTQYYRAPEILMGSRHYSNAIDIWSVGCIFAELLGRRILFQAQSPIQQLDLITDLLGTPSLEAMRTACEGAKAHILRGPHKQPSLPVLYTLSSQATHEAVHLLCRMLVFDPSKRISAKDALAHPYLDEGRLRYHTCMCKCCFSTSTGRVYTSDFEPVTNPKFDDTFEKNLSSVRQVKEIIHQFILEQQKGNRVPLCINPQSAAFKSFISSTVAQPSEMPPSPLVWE
Put plainly: Selectivity interaction (KinomeScan (DiscoverX)) EUB0000618a NLK. The following applies: at 10 µM.

The target in assay [12] is Misshapen-like kinase 1 (Homo sapiens, UniProt Q8N4C8). Briefly: Selectivity interaction (Upstate Kinase Profiler service (Millipore)) EUB0000056c MINK1. The following applies: at 1 µM.
The target of assay [13] is Serine/threonine-protein kinase RIO2 (Homo sapiens) (UniProt Q9BVS4). Put plainly: Selectivity interaction (KinomeScan (DiscoverX)) EUB0000595a RIOK2. The following applies: at 10 µM.
Sequence of Serine/threonine-protein kinase RIO2 (Homo sapiens) (Q9BVS4 whole entry, looked up): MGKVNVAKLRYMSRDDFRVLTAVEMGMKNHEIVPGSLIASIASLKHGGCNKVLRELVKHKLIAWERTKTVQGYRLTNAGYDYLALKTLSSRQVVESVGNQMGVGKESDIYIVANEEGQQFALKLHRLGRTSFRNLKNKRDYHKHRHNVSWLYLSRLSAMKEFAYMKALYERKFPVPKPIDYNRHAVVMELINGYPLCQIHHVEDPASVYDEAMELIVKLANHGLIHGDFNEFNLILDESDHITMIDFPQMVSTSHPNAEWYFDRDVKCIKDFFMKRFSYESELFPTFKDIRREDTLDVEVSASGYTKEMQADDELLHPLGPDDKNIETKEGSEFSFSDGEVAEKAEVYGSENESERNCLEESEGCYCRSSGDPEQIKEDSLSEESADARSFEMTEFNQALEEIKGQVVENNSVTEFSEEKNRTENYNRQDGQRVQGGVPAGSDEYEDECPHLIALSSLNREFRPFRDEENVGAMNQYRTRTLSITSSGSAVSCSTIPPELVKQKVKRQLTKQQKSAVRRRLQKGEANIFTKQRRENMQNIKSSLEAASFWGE

Sequence of Ribosomal protein S6 kinase beta-1 (P23443 whole entry, looked up, canonical isoform): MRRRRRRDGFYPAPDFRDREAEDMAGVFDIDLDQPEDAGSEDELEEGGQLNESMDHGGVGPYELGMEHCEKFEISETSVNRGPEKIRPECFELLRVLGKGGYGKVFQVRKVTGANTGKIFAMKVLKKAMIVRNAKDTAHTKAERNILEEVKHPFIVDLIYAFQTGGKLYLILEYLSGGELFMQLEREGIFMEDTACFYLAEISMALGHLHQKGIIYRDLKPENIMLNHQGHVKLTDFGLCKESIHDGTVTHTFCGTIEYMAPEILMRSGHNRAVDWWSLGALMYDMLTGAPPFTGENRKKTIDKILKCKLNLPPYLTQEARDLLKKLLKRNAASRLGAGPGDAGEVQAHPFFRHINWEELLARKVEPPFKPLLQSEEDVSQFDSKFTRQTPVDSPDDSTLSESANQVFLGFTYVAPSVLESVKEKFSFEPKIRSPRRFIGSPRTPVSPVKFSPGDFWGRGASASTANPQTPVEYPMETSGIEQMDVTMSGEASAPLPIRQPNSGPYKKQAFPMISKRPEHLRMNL
Sequence of Casein kinase I isoform delta (P48730 whole entry, looked up, canonical isoform): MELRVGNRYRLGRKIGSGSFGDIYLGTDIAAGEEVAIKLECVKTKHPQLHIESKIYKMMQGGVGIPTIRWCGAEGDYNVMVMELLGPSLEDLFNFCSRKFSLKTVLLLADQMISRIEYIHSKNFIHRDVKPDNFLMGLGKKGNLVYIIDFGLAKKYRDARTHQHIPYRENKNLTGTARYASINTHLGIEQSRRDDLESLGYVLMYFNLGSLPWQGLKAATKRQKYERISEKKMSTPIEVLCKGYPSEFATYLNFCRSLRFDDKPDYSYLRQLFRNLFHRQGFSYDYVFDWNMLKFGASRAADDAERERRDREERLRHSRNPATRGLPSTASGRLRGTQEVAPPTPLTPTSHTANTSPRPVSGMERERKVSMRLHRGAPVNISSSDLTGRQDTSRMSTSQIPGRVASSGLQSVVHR
Sequence of Calcium/calmodulin-dependent protein kinase kinase 2 (Homo sapiens) (Q96RR4 2-588 limits assumed): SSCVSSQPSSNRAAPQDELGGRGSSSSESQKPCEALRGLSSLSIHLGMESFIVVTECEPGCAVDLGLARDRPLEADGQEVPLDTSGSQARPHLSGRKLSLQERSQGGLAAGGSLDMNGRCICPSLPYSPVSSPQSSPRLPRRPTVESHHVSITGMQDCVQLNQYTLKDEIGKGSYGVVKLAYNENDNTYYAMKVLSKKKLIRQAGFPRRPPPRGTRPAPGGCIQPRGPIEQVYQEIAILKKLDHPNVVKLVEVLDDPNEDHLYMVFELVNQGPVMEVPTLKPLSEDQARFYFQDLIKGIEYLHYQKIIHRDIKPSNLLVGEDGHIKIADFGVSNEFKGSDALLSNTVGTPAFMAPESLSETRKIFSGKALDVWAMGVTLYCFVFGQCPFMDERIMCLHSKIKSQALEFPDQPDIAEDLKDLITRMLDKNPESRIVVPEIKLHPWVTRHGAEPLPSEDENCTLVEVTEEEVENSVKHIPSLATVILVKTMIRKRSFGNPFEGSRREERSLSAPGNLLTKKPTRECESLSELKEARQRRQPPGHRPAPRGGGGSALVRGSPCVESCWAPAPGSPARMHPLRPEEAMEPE
Sequence of Serine/threonine-protein kinase PAK 2 (Homo sapiens) (Q13177 whole entry): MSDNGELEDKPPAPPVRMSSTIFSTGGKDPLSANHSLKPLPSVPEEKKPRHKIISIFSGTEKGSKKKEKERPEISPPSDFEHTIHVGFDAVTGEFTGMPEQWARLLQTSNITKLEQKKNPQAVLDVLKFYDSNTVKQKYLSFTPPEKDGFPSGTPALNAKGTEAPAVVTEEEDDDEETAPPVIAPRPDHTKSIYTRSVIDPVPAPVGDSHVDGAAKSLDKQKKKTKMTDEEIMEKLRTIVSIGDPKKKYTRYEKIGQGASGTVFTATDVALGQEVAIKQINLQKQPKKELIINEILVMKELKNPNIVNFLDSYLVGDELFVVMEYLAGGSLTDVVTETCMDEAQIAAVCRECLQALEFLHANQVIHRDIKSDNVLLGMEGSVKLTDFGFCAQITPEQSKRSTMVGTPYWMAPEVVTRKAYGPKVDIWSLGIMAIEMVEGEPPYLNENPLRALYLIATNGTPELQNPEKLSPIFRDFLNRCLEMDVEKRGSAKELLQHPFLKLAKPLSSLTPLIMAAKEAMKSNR
Sequence of Receptor-type tyrosine-protein kinase FLT3 (Homo sapiens), P36888 [UNDEFINED MUTATION] (P36888 whole entry, looked up, change not shown): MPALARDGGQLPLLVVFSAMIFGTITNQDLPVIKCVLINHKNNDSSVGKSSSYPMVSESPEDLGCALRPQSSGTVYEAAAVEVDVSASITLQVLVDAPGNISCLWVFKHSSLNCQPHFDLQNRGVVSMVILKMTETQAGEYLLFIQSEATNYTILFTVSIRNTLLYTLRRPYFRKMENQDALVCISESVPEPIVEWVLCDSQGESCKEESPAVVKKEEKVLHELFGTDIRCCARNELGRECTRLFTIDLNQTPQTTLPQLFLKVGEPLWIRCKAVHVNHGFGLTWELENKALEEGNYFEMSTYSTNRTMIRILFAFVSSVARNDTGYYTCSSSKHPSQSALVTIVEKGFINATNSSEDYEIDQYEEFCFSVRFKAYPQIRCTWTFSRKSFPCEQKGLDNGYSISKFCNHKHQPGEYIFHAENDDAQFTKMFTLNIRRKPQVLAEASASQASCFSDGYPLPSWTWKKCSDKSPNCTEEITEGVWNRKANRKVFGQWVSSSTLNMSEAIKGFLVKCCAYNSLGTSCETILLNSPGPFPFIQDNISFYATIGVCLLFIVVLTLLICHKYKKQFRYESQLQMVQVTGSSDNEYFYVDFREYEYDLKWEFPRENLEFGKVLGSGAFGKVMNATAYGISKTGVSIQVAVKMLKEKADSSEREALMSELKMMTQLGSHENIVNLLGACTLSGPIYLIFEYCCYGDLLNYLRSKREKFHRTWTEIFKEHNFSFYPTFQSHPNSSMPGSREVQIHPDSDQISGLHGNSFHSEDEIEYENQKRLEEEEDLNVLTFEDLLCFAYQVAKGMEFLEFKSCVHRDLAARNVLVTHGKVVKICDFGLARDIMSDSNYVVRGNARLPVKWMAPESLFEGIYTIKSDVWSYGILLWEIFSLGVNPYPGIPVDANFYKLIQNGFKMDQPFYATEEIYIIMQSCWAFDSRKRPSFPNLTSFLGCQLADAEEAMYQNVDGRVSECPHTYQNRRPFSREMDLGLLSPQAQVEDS
Sequence of cGMP-inhibited 3',5'-cyclic phosphodiesterase 3A (Q14432 whole entry): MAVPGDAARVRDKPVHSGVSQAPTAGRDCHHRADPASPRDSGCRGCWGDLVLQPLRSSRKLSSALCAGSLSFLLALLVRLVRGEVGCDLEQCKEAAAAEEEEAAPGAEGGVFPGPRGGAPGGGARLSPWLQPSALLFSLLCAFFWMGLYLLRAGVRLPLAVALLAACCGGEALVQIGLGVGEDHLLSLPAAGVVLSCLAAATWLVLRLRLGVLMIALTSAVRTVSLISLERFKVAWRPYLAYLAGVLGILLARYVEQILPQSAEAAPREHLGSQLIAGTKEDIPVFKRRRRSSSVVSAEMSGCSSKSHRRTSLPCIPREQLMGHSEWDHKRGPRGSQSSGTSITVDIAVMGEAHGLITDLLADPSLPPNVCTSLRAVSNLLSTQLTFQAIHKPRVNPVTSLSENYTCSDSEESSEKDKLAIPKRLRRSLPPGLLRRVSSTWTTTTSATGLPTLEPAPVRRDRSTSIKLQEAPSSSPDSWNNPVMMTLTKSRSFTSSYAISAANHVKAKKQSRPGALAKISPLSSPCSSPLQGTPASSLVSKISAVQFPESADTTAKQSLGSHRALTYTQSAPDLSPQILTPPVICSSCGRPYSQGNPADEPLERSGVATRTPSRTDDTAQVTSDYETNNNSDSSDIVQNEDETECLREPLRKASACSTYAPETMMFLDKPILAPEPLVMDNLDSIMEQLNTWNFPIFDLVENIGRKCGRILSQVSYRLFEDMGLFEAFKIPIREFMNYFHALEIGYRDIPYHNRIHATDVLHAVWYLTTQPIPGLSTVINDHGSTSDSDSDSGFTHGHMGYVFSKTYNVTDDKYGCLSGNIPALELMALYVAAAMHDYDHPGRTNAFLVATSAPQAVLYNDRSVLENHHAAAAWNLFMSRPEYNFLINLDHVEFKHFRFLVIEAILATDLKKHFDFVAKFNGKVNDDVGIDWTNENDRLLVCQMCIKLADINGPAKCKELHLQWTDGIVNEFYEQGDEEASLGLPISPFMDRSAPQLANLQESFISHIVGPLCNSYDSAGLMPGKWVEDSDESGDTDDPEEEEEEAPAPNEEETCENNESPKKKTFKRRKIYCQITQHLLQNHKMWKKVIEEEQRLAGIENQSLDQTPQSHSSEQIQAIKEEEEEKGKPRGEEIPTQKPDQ

For `Cc1cc([C@@H](C)Nc2ccccc2C(=O)O)c2nc(N3CCOCC3)cc(=O)n2c1` [AZD-6482], the % of control in [1] worked out at 100%. Take `CC(C)(O)[C@H](F)CN1Cc2cc(NC(=O)c3cnn4cccnc34)c(N3CCOCC3)cc2C1=O`: the dTM in assay [2] was found to be 4.3 K.

The molecule `CCc1ccccc1C(=O)Nc1n[nH]c2c(C)c(F)c(C3C(C#N)=C(C)N(C)C(C)=C3C#N)cc12` [BAY-3827] displayed a % of control in assay [3] of 11%. `Nc1cnc(N2CCc3cc(S(=O)(=O)Nc4c(F)cc(Cl)cc4F)cc(N4CCCC4=O)c32)nc1` [TP-020n]: in assay [4], the % of inhibition is -5.02%. As for `CC[C@@H](Nc1c(C#N)c(-c2ccc(-c3cccc(C)c3F)cc2)nc2cnccc12)C(=O)O` [BAY-091], in [5], the % of inhibition is 74%. As for `CC[C@@H]1[C@H](F)C(=O)N[C@@H]1COc1nccc2cc(C(N)=O)c(OC)cc12` [ZIMLOVISERTIB], the % of inhibition in assay [6] (at 0.01 µM) is 4.3%; in [6] (at 0.04 µM) it was -11.1%; in [6] (at 0.2 µM), -18.3%; in assay [6] (at 1 µM), -7.3%; in assay [6] (at 5 µM), -18.8%.

`CCN(CC)CCCCNc1ncc2cc(-c3cc(OC)cc(OC)c3)c(NC(=O)NC(C)(C)C)nc2n1` registered a % of control in [7] of 100%. As for `COc1cc(Nc2nc(C)cc(-c3cnn4nc(OC)ccc34)n2)cc(C(F)(F)F)c1`, the % of control in [8] came out at 75%. `C=CC(=O)Nc1cccc(C(=O)Nc2ccc(Nc3cc(-c4[nH]c(SC)nc4C)ccn3)cc2)c1`: the % of control in [9] (at 1 µM) was found to be 105%; in assay [9] (at 5 µM) it was 87%. As for `CCC(=O)N1CCN(c2ccc(-n3c(=O)ccc4cnc5ccc(-c6cnc7ccccc7c6)cc5c43)cc2C(F)(F)F)CC1`, in [10], the % of control came out at 4.3%.

In assay [11], `O[C@H]1CC[C@H](Nc2ncc3nc(Nc4c(F)cc(F)cc4F)n([C@H]4CCOC4)c3n2)CC1` gave a % of control of 5.2%.

Turning to `Cc1ccc(-c2ccc3c(ccc4sc5c(c43)NC[C@@H](C)NC5=O)n2)cn1`, the % of inhibition in assay [12] is 11%. In turn, `COCC(=O)NC/C=C/c1ccc2ncnc(Nc3ccc(Oc4ccc(C)nc4)c(C)c3)c2c1` [CP-724714] came in with a % of control in assay [13] of 100%.

For the origin of these results see ChEMBL document CHEMBL5465560, “Selectivity Literature for EUbOPEN Chemogenomic Library” (2024).
